Assay results taken from US8044079B2, “Substituted oxindole derivatives, medicaments containing said derivatives and use thereof” (Abbott GmbH & Co. KG, priority 2005, dated 2011).

Each compound was assayed against T1, human vasopressin V1b receptor (Homo sapiens, UniProt P47901) (assay: Vasopressin V1b receptor binding test). Conditions: membranes of CHO-K1 cells with human V1b receptor, displacement of 1.5 nM 3H-AVP; for compounds with more than one stereogenic center the diastereomer with greater affinity.
T1 construct: expressed in transfected cells; host or cells: CHO-K1 (cell line hV1b_3H2_CHO), membrane preparation
T1 sequence (P47901 1-424): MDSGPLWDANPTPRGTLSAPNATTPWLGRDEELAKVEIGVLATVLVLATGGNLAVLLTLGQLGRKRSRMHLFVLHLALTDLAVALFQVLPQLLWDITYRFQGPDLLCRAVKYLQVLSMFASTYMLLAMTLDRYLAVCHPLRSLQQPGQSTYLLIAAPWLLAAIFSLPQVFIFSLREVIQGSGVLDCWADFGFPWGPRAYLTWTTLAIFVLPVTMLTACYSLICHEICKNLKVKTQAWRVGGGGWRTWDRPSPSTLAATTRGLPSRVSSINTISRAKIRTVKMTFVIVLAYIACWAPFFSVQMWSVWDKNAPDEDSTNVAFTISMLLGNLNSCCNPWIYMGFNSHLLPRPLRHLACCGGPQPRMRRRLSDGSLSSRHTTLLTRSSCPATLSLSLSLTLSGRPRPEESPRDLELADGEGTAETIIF
Method in brief: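 Radioligand displacement on membranes carrying human V1b receptor in 50 mM tris, 10 mM MgCl2, 0.1% BSA, pH 7.4, 2% DMSO final; 60 min at room temperature, nonspecific binding with 1 μM AVP. Free ligand removed by filtration, bound counted by liquid scintillation, Ki from nonlinear regression of triplicates.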

`CCNCc1ccc(OC)c(C2(N3CCC[C@@]3(C)c3ncco3)C(=O)N(S(=O)(=O)c3ccc(OC)cc3)c3ccc(Cl)cc32)c1` (stereo partly drawn) [Example 231, 5-Chloro-3-(5-ethylaminomethyl-2-methoxyphenyl)-1-(4-methoxybenzenesulfonyl)-3-((S)-2-methyl-2-oxazol-2-yl-pyrrolidin-1-yl)-1,3-dihydroindol-2-one] and `CCN1CCN(Cc2ccc(OC)c(C3(N4CCC[C@@]4(C)c4ncco4)C(=O)N(S(=O)(=O)c4ccc(OC)cc4)c4ccc(Cl)cc43)c2)CC1` (stereo partly drawn) [Example 232, 5-Chloro-3-[5-(4-ethylpiperazin-1-ylmethyl)-2-methoxyphenyl]-1-(4-methoxybenzenesulfonyl)-3-((S)-2-methyl-2-oxazol-2-yl-pyrrolidin-1-yl)-1,3-dihydroindol-2-one] cannot be ordered by Ki: less than 10 nM for the first, less than 10 nM for the second.

`COc1ccc(S(=O)(=O)N2C(=O)C(c3cc(CN4CCN(CCO)CC4)ccc3OC)(N3CCC[C@H]3c3ncc(C)o3)c3cc(Cl)ccc32)cc1` (stereo partly drawn) [Example 233, 5-Chloro-3-{5-[4-(2-hydroxyethyl)piperazin-1-ylmethyl]-2-methoxyphenyl}-1-(4-methoxybenzenesulfonyl)-3-[(S)-2-(5-methyloxazol-2-yl)-pyrrolidin-1-yl]-1,3-dihydroindol-2-one] and `COc1ccc(S(=O)(=O)N2C(=O)C(c3cc(CN4CCN(C)CC4)ccc3OC)(N3CCC[C@H]3c3ncc(C)o3)c3cc(Cl)ccc32)cc1` (stereo partly drawn) [Example 235, 5-Chloro-1-(4-methoxybenzenesulfonyl)-3-[2-methoxy-5-(4-methylpiperazin-1-ylmethyl)phenyl]-3-[(S)-2-(5-methyloxazol-2-yl)-pyrrolidin-1-yl]-1,3-dihydroindol-2-one] fall in the same range of Ki: 10 to 100 nM for the first, 10 to 100 nM for the second.

In the case of `COc1ccc(S(=O)(=O)N2C(=O)C(c3cc(CN(C)C)ccc3OC)(N3CCC[C@H]3c3ncc(C)o3)c3cc(Cl)ccc32)cc1` (stereo partly drawn) [Example 234, 5-Chloro-3-(5-dimethylaminomethyl-2-methoxyphenyl)-1-(4-methoxybenzenesulfonyl)-3-[(S)-2-(5-methyloxazol-2-yl)-pyrrolidin-1-yl]-1,3-dihydroindol-2-one], the Ki is reported as 10 to 100 nM.
